# Source: ChEMBL document CHEMBL4706623, “GPR52 Antagonist Reduces Huntingtin Levels and Ameliorates Huntington's Disease-Related Phenotypes” (J Med Chem, 2021)
# Target: G-protein coupled receptor 52 (Homo sapiens, UniProt Q9Y2T5)
# Experiment: Antagonist activity at GPR52 (unknown origin) expressed in HEK293 cells assessed as inhibition of WO459-induced cAMP accumulation preincubated for 15 mins followed by WO459 addition and measured after 30 mins by LANCE Ultra cAMP kit based microplate reader analysis
# Assay type: functional, cell-based
# Conditions: read-out: IC50
# Sequence of G-protein coupled receptor 52 (Q9Y2T5 whole entry): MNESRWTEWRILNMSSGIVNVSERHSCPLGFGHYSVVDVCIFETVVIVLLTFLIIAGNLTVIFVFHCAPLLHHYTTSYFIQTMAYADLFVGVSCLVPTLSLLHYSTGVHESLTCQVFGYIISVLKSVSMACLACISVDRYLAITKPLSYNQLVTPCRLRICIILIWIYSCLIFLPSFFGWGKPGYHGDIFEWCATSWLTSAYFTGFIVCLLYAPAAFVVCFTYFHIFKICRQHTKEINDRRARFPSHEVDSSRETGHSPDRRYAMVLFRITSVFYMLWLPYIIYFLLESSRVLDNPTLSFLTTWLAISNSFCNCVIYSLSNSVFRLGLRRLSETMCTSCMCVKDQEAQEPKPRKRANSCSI
row,IC50 [µM],SMILES
1,3.54,O=C(/C=C/CCc1ccccc1)c1ccc2ccccc2c1
2,2.57,Cc1cccc(C(=O)/C=C/CCc2ccccc2)c1
